How the values were obtained:
[1] = biological target: human cytochrome P450 3A4 (Homo sapiens, UniProt P08684)
Procedure: 3A4 protein produced essentially as described in “Protein purification (3)” above was used to obtain co-crystals with metyrapone, apart from replacing the CM-Sepharose column with a CM-fast flow column. Co-crystals of metyrapone were generated using crystallisation conditions of 0.1M Hepes pH 7.5, 0.25M sodium chloride, 5% MPD, 50 mM Calcium chloride, 10% (w/v) PEG 4000, and soaking the crystals in 0.5 mM metyrapone for 4 hours. […] The Fe—N bond distance was loosely restrained to […] during the refinement.
3A4 protein produced essentially as described in “Protein purification (3)” above was used to obtain co-crystals with progesterone, apart from replacing the CM-Sepharose column with a CM-fast flow column. Co-crystals of progesterone were obtained by co-crystallisation using 0.5 mM progesterone in 2.5% ethanol and crystallisation conditions of 0.1M HEPES pH 7.5, 0.25M potassium chloride, 12% (w/v) PEG 4000, 5% (w/v) MPD, 25 mM calcium chloride.
Molecular replacement was performed using the program AMORE and using the CYP3A4 crystal structure described in Table 1 as the search model. […] This molecular replacement model was then used as a starting model for subsequent refinement of other datasets from crystal form 2.
Apo (compound-free) crystals of 3A4 were obtained by setting up a 1:1 ratio of protein (at 36.5 mg/ml in buffer, 10 mM KPi, pH7.2, 20% glycerol, 1 mM EDTA, 2 mM DTT, 0.5M KCl) against 0.1 M Hepes-NaOH pH 7.5, 1.44 M sodium citrate.
Apo (compound-free) crystals of 3A4 were generated by setting up a 1:1 ratio of protein (at 36.5 mg/ml in buffer, 10 mM KPi, pH7.2, 20% glycerol, 1 mM EDTA, 2 mM DTT, 0.5M KCl) against 0.1M Hepes-NaOH pH 7.5, 1.424M Sodium citrate. The resulting crystals were soaked for 18 hours in a mother liquor containing 5 mM fluconazole, and then frozen using 0.1M Hepes-NaOH pH7.5, 1.4M sodium citrate, 15% glycerol.

CYP3A4 = biological target: T1, CYP3A4 (Homo sapiens, UniProt P08684); test: UV/visible spectroscopy of inhibitor binding in solution; conditions: UV/visible spectroscopic data (not shown)
T1 construct: made in house; host or cells: E. coli XL1 Blue
T1 sequence (P08684 with tags, fused parts or gaps): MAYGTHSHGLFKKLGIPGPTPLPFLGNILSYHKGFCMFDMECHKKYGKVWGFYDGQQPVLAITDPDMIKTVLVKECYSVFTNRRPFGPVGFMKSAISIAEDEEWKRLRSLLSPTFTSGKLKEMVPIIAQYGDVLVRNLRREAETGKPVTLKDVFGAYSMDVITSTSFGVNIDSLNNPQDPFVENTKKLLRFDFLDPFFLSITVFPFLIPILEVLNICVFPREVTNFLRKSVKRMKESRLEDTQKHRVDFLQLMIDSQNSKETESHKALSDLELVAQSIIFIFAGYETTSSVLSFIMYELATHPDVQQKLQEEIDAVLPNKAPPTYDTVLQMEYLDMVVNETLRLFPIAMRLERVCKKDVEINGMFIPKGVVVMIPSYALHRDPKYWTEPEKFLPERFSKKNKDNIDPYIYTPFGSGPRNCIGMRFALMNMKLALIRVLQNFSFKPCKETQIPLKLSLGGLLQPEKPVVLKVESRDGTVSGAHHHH

human cytochrome P450 3A4, sequence (P08684 with tags, fused parts or gaps): as above

SMILES	distance of the compound (nearest atom) from the haem iron [1]	separation of the two bound copies of the compound [1]	binding mode in solution (CYP3A4)	binding position of the compound in the 3A4 crystal structure [1]	volume occupied by the molecule in the active site [1] [Å^3]
OC(Cn1cncn1)(Cn1cncn1)c1ccc(F)cc1F [fluconazole]	approximately 14 Å	approximately 7 Å			
CC(C)(C(=O)c1cccnc1)c1cccnc1 [metyrapone]			liganded to the haem	bound directly to the haem iron via a pyridine nitrogen	50
CC(=O)[C@H]1CC[C@H]2[C@@H]3CCC4=CC(=O)CC[C@]4(C)[C@H]3CC[C@]12C [progesterone]				bound at a peripheral site very close to the Phe-cluster	
